Source: ChEMBL document CHEMBL6083257, “Discovery of small molecules for autophagy-lysosome degradation of immune checkpoint proteins” (Eur J Med Chem, 2024)
Calls of active or inactive are those of the source. No cut-off for these calls is given here.

What was measured:
[1] = test system: HepG2; experiment: Induction of VISTA degradation in human HepG2 cells assessed as decrease in VISTA protein level at 5 uM using ECL as substrate incubated for 1 hrs by immunoblot analysis; format: cell-based
[2] = test system: HepG2; experiment: Induction of VISTA degradation in human HepG2 cells assessed as decrease in VISTA protein level at 5 uM using ECL as substrate incubated for 1 hrs by immunoblot analysis relative to control; format: cell-based; set-up: scale not given: the % may be the effect or the level left
[3] = biological target: Programmed cell death protein 1/Programmed cell death 1 ligand 1 (Homo sapiens, UniProt Q15116+Q9NZQ7); experiment: Inhibition of PD-1/PD-L1 interaction (unknown origin) incubated for 90 min by TR-FRET assay; format: protein-complex assay
[4] = test system: RKO; experiment: AUTAC (autophagy-targeting chimera) activity at PD-L1 in human RKO cells assessed as autophagy-lysosome mediated protein degradation by measuring protein level at 0.5 uM measured after 24 hrs by ECL substrate based Western blotting analysis relative to control; format: cell-based
[5] = test system: RKO; experiment: AUTAC (autophagy-targeting chimera) activity at PD-L1 in human RKO cells assessed as autophagy-lysosome mediated protein degradation at 1 uM measured after 24 hrs by ECL substrate based Western blotting analysis; format: cell-based
[6] = test system: RKO; experiment: AUTAC (autophagy-targeting chimera) activity at PD-L1 in human RKO cells assessed as autophagy-lysosome mediated protein degradation measured after 24 hrs by ECL substrate based Western blotting analysis; format: cell-based; details: dose 0.5-2 µM
[7] = test system: RKO; experiment: AUTAC (autophagy-targeting chimera) activity at PD-L1 in human RKO cells assessed as autophagy-lysosome mediated protein degradation by measuring protein level at 2 uM measured after 24 hrs by ECL substrate based Western blotting analysis relative to control; format: cell-based
[8] = test system: RKO; experiment: AUTAC (autophagy-targeting chimera) activity at PD-L1 in human RKO cells assessed as autophagy-lysosome mediated protein degradation by measuring protein level at 1 uM measured after 24 hrs by ECL substrate based Western blotting analysis relative to control; format: cell-based
[9] = test system: RKO; experiment: AUTAC (autophagy-targeting chimera) activity at PD-L1 in human RKO cells assessed as autophagy-lysosome mediated protein degradation by measuring protein level at 4 uM measured after 24 hrs by ECL substrate based Western blotting analysis relative to control; format: cell-based
[10] = test system: RKO; experiment: AUTAC (autophagy-targeting chimera) activity at PD-L1 in human RKO cells assessed as autophagy-lysosome mediated protein degradation at 4 uM measured after 24 hrs by ECL substrate based Western blotting analysis; format: cell-based
[11] = test system: RKO; experiment: Induction of autophagosome lysosome fusion in human RKO cells transfected with Ad-mCherry-GFP-LC3B incubated for 24 hrs by inverted fluorescence microscope analysis; format: functional, cell-based
[12] = test system: CT26; experiment: In vivo antitumor activity against mouse CT26 cells implanted in male BALB/c mouse model assessed reduced tumor growth oral administration once daily; format: functional, organism-based; details: dose 30-120 mg/kg
[13] = Toxicity in male BALB/c mouse model mouse implanted in CT26 cells assessed as mortality at 120 mg/kg, po; format: organism-based; details: in vivo
[14] = test system: RKO; experiment: AUTAC (autophagy-targeting chimera ) activity in autophagy-lysosome mediated PD-L1 degradation in human RKO cells assessed as PD-L1 degradation at 10 uM using ECL as substrate incubated for 24 hrs in presence of pepstainA by immunoblot analysis; format: cell-based
[15] = test system: RKO; experiment: AUTAC (autophagy-targeting chimera) activity at PD-L1 in human RKO cells assessed as autophagy-lysosome mediated protein degradation by measuring reduced PD-L1 level at 1 uM incubated for 24 hrs by ECL substrate based Western blotting analysis relative to control; format: cell-based; set-up: scale not given: the % may be the effect or the level left
[16] = test system: CT26; experiment: Antitumor immunity against mouse CT26 cells implanted in male BALB/c mouse model assessed as increase infiltration of CD8+ cells at 30 to 120 mg/kg, po; format: functional, organism-based; details: dose 30-120 mg/kg
[17] = test system: RKO; experiment: AUTAC (autophagy-targeting chimera ) activity in autophagy-lysosome mediated PD-L1 degradation in human RKO cells assessed as PD-L1 degradation at 0.5 uM using ECL as substrate incubated for 24 hrs in presence of Cycloheximide by immunoblot analysis; format: cell-based
[18] = Toxicity in male BALB/c mouse model mouse implanted in CT26 cells assessed as body weight loss at 120 mg/kg, po; format: organism-based; details: in vivo
[19] = test system: CT26; experiment: In vivo antitumor activity against mouse CT26 cells implanted in male BALB/c mouse model assessed reduced tumor growth at 60 mg/kg oral administration once daily; format: functional, organism-based
[20] = test system: RKO; experiment: Induction of autophagy in human RKO cells assessed as increase LC3II expression at 1 uM incubated for 24 hrs in presence of 3-methyladenine by immunoblot analysis; format: functional, cell-based
[21] = test system: RKO; experiment: AUTAC (autophagy-targeting chimera ) activity in autophagy-lysosome mediated PD-L1 degradation in human RKO cells assessed as PD-L1 degradation at 0.5 uM using ECL as substrate incubated for 24 hrs in presence of 3-methyladenine by immunoblot analysis; format: cell-based
[22] = test system: CT26; experiment: In vivo antitumor activity against mouse CT26 cells implanted in male BALB/c mouse model assessed as decrease PD-L1 in tumor tissue at 120 mg/kg, po incubated for overnight by immunohistochemistry; format: functional, organism-based
[23] = test system: RKO; experiment: AUTAC (autophagy-targeting chimera) activity at PD-L1 in human RKO cells assessed as autophagy-lysosome mediated protein degradation by measuring reduced PD-L1 level at 0.5 uM incubated for 24 hrs by ECL substrate based Western blotting analysis relative to control; format: cell-based; set-up: scale not given: the % may be the effect or the level left
[24] = test system: RKO; experiment: AUTAC (autophagy-targeting chimera ) activity in autophagy-lysosome mediated PD-L1 degradation in human RKO cells assessed as PD-L1 degradation at 50 uM using ECL as substrate incubated for 24 hrs in presence of chloroquine by immunoblot analysis; format: cell-based
[25] = test system: RKO; experiment: AUTAC (autophagy-targeting chimera) activity at PD-L1 in human RKO cells assessed as autophagy-lysosome mediated protein degradation at 2 uM measured after 24 hrs by ECL substrate based Western blotting analysis; format: cell-based
[26] = test system: RKO; experiment: Upregulation of autophagy lysosome related Mitf gene expression in human RKO cells at 5 uM incubated for 24 hrs by qRT-PCR analysis; format: functional, cell-based
[27] = test system: RKO; experiment: Upregulation of autophagy lysosome related Lamp1 gene expression in human RKO cells at 5 uM incubated for 24 hrs by qRT-PCR analysis; format: functional, cell-based
[28] = test system: RKO; experiment: Upregulation of autophagy lysosome related Atg9b gene expression in human RKO cells at 5 uM incubated for 24 hrs by qRT-PCR analysis; format: functional, cell-based

Sequence of Programmed cell death protein 1/Programmed cell death 1 ligand 1 (Q15116 whole entry): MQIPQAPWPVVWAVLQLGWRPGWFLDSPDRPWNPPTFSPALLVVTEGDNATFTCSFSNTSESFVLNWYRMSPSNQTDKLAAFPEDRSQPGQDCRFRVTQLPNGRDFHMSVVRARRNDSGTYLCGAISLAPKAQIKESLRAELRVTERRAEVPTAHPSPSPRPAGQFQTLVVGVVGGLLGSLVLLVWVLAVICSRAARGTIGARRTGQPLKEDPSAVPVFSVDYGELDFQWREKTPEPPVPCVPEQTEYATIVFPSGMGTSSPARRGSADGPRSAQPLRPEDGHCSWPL
Sequence of Programmed cell death protein 1/Programmed cell death 1 ligand 1 (Q9NZQ7 whole entry): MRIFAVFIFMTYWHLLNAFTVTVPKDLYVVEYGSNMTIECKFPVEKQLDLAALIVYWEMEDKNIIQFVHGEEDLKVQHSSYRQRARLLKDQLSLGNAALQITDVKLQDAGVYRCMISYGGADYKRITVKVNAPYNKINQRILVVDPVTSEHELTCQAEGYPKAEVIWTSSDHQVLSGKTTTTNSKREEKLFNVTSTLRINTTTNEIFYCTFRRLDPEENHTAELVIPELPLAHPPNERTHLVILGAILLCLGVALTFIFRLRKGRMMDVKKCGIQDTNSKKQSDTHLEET

## Cc1c(-c2ccccc2)ccc2nc(-c3cccc(CNCCOCCOCCOCCOCCNCc4cccc(Nc5nnc(-c6ccccc6)o5)c4)c3)[nH]c12
[1]
  Activity: Active
[2]
  Activity: 87%

## Cc1c(-c2ccccc2)cccc1-c1nnc(Nc2cccc(CNCCOCCOCCOCCNCc3cccc(Nc4nnc(-c5ccccc5)o4)c3)c2)o1
[3]
  IC50: 28.4 nM
[4]
  Activity: 90%
[5]
  Activity: Active
[6]
  Activity: Dose-dependent-effect
[7]
  Activity: 44%
[8]
  Activity: 72%
[9]
  Activity: 4%
[10]
  Activity: Active

## Cc1c(-c2ccccc2)ccc2nc(-c3cccc(CNCCOCCOCCOCCNCc4cccc(Nc5nnc(-c6ccccc6)o5)c4)c3)[nH]c12
[1]
  Activity: Active
[2]
  Activity: 89%

## Cc1c(-c2ccccc2)cccc1-c1nnc(Nc2cccc(CNCCOCCOCCNCc3cccc(Nc4nnc(-c5ccccc5)o4)c3)c2)o1
[3]
  IC50: 30.6 nM

## Cc1c(-c2ccccc2)cccc1-c1nnc(Nc2cccc(CNCCOCCNCc3cccc(Nc4nnc(-c5cccc(-c6ccccc6)c5C)o4)c3)c2)o1
[3]
  IC50: 39.4 nM

## Cc1c(-c2ccccc2)cccc1-c1nnc(Nc2cccc(CNCCOCCOCCOCCOCCNCc3cccc(Nc4nnc(-c5ccccc5)o4)c3)c2)o1
[3]
  IC50: 22.8 nM
[11]
  Activity: Active
[12]
  Activity: Dose-dependent-effect
[13]
  Activity: Non-toxic
[14]
  Activity: Active
[15]
  Activity: 90%
[16]
  Activity: Active
[6]
  Activity: Dose-dependent-effect
[17]
  Activity: Active
[18]
  Activity: Non-toxic
[19]
  Activity: Active
[20]
  Activity: Active
[21]
  Activity: Active
[22]
  Activity: Active
[23]
  Activity: 70%
[24]
  Activity: Active

## Cc1c(-c2ccccc2)cccc1-c1nnc(Nc2cccc(CNCCOCCOCCOCCNCc3cccc(Nc4nnc(-c5cccc(-c6ccccc6)c5C)o4)c3)c2)o1
[3]
  IC50: 24.6 nM
[25]
  Activity: Active
[6]
  Activity: Dose-dependent-effect

## OCCNCc1cccc(Nc2nnc(-c3ccccc3)o2)c1
[3]
  IC50: > 1000 nM
[26]
  Activity: Active
[27]
  Activity: Active
[28]
  Activity: Active

## Cc1c(-c2ccccc2)cccc1-c1nnc(Nc2cccc(CNCCOCCOCCOCCOCCOCCNCc3cccc(Nc4nnc(-c5ccccc5)o4)c3)c2)o1
[3]
  IC50: 23 nM

## CNc1cccc(CNCCO)c1
[3]
  IC50: > 1000 nM
[26]
  Activity: Active
[27]
  Activity: Active
[28]
  Activity: Active

## Cc1c(-c2ccccc2)cccc1-c1nnc(Nc2cccc(CNCCOCCOCCOCCOCCNCc3cccc(-c4nc5ccc(-c6ccccc6)c(C)c5[nH]4)c3)c2)o1
[1]
  Activity: Active

## Cc1c(-c2ccccc2)cccc1-c1nnc(Nc2cccc(CNCCOCCOCCOCCNCc3cccc(-c4nc5ccc(-c6ccccc6)c(C)c5[nH]4)c3)c2)o1
[1]
  Activity: Active

## CNc1cccc(CNCCOCCOCCOCCNCc2cccc(Nc3nnc(-c4cccc(-c5ccccc5)c4C)o3)c2)c1
[3]
  IC50: 22.3 nM
[4]
  Activity: 93%
[6]
  Activity: Dose-dependent-effect
[7]
  Activity: 33%
[9]
  Activity: 28%

## Cc1c(-c2ccccc2)cccc1-c1nnc(Nc2cccc(CNCCOCCOCCNCc3cccc(Nc4nnc(-c5cccc(-c6ccccc6)c5C)o4)c3)c2)o1
[3]
  IC50: 25.7 nM
